Measured values as given in PubChem BioAssay AID330 (DTP/NCI, 2004).
Toxic doses and inconclusive results are not listed. Rule for the calls: active = survival T/C of 150% or more; inactive = T/C below 125% in these data.

Test system: P388 leukemia ip, CD2F1 mice, survival T/C
Assay: NCI In Vivo Anticancer Drug Screen. Data for tumor model P388 Leukemia (intraperitoneal) in CD2F1 (CDF1) mice
Conditions: endpoint: median survival time, higher = longer survival
Summary of the method: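 Mice carrying the transplanted tumor received test compound or vehicle. Survival was recorded in each group, and the value is the treated-group measurement divided by that of the vehicle-treated control group.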

[1] = dose: 50.0 mg/kg/injection, schedule: Q01DX009 (ip), vehicle: Klucel (hydroxypropylcellulose) (HPC)
[2] = dose: 100.0 mg/kg/injection, schedule: Q01DX009 (ip), vehicle: Klucel (hydroxypropylcellulose) (HPC)
[3] = dose: 200.0 mg/kg/injection, schedule: Q01DX009 (ip), vehicle: Klucel (hydroxypropylcellulose) (HPC)
[4] = dose: 6.25 mg/kg/injection, schedule: Q01DX009 (ip), vehicle: saline
[5] = dose: 50.0 mg/kg/injection, schedule: Q01DX005 (ip), vehicle: saline with Tween-80
[6] = dose: 100.0 mg/kg/injection, schedule: Q01DX005 (ip), vehicle: saline with Tween-80
[7] = dose: 200.0 mg/kg/injection, schedule: Q01DX005 (ip), vehicle: saline with Tween-80
[8] = dose: 50.0 mg/kg/injection, schedule: Q01DX009 (ip), vehicle: saline
[9] = dose: 100.0 mg/kg/injection, schedule: Q04DX003 (ip), vehicle: saline with Tween-80
[10] = dose: 200.0 mg/kg/injection, schedule: Q04DX003 (ip), vehicle: saline with Tween-80

Measured: T/C

CCCCN(CCCC)C(=S)C(O)(c1ccccc1)c1ccccc1
inactive: [1] 95 % of control | [2] 91 % of control | [3] 90 % of control

CSC(SC)=C1C(=O)NC(=O)NC1=O
inactive: dose: 3.12 mg/kg/injection, schedule: Q01DX009 (ip), vehicle: saline with Tween-80 104 % of control | dose: 6.25 mg/kg/injection, schedule: Q01DX009 (ip), vehicle: saline with Tween-80 90 % of control | [4] 111 % of control | dose: 12.5 mg/kg/injection, schedule: Q01DX009 (ip), vehicle: saline with Tween-80 120 % of control | dose: 12.5 mg/kg/injection, schedule: Q01DX009 (ip), vehicle: saline 111 % of control | dose: 25.0 mg/kg/injection, schedule: Q01DX009 (ip), vehicle: saline 124 % of control | dose: 50.0 mg/kg/injection, schedule: Q01DX005 (ip), vehicle: Klucel (hydroxypropylcellulose) (HPC) 95 % of control | dose: 100.0 mg/kg/injection, schedule: Q01DX005 (ip), vehicle: Klucel (hydroxypropylcellulose) (HPC) 101 % of control

O=C(C/[N+]([O-])=C/c1ccccc1)OCc1ccccc1
inactive: dose: 12.5 mg/kg/injection, schedule: Q01DX009 (ip), vehicle: other 112 % of control | dose: 25.0 mg/kg/injection, schedule: Q01DX009 (ip), vehicle: other 112 % of control | dose: 50.0 mg/kg/injection, schedule: Q01DX009 (ip), vehicle: other 95 % of control | dose: 100.0 mg/kg/injection, schedule: Q01DX009 (ip), vehicle: other 88 % of control | dose: 200.0 mg/kg/injection, schedule: Q01DX009 (ip), vehicle: other 104 % of control

CC(C)CN1CC(=O)N2CCCC(c3ccccc3)N2C(=O)C1 (configuration not stated)
inactive: [5] 95 % of control | [6] 115 % of control | [7] 112 % of control

COc1ccc2c(=O)c(-c3ccc(OC)c(OC)c3OCc3ccccc3)coc2c1
inactive: dose: 100.0 mg/kg/injection, schedule: Q01DX001 (ip), vehicle: Klucel (hydroxypropylcellulose) (HPC) 92 % of control | dose: 200.0 mg/kg/injection, schedule: Q01DX001 (ip), vehicle: Klucel (hydroxypropylcellulose) (HPC) 96 % of control | dose: 400.0 mg/kg/injection, schedule: Q01DX001 (ip), vehicle: Klucel (hydroxypropylcellulose) (HPC) 94 % of control

O=c1cccc2c3ccccc3ccn12
inactive: dose: 60.0 mg/kg/injection, schedule: Q01DX005 (ip), vehicle: Klucel (hydroxypropylcellulose) (HPC) 91 % of control | dose: 120.0 mg/kg/injection, schedule: Q01DX005 (ip), vehicle: Klucel (hydroxypropylcellulose) (HPC) 95 % of control

CCCCCCCCCCCCCCCC[N+]1([O-])CCCCCC1
inactive: [8] 93 % of control

COC1=CC=C2Nc3nc(N)[nH]c(=O)c3SC2N1 (configuration not stated)
inactive: dose: 60.0 mg/kg/injection, schedule: Q01DX005 (ip), vehicle: saline with Tween-80 99 % of control | dose: 120.0 mg/kg/injection, schedule: Q01DX005 (ip), vehicle: saline with Tween-80 90 % of control | dose: 240.0 mg/kg/injection, schedule: Q01DX005 (ip), vehicle: saline with Tween-80 97 % of control

CCSc1ncnc2c1ncn2C1OC(CO)C(O)C1O (configuration not stated)
inactive: [9] 104 % of control | [10] 109 % of control

Cc1cn(C2CC(O)C(C(=O)Nc3ccc(C(=O)CCl)cc3)O2)c(=O)[nH]c1=O (configuration not stated)
inactive: [5] 108 % of control | [6] 114 % of control | [7] 109 % of control

O=NN(CCCl)C(=O)Nc1ccc(Br)cc1
active: dose: 12.5 mg/kg/injection, schedule: Q01DX009 (ip), vehicle: suspension in saline 150 % of control | dose: 25.0 mg/kg/injection, schedule: Q01DX009 (ip), vehicle: suspension in saline 167 % of control | dose: 50.0 mg/kg/injection, schedule: Q01DX009 (ip), vehicle: suspension in saline 167 % of control
inactive: [4] 122 % of control | [8] 122 % of control

c1ccc(C2SC(c3ccccc3)SC(c3ccccc3)S2)cc1 (configuration not stated)
inactive: [1] 109 % of control | [2] 107 % of control | [3] 108 % of control | dose: 400.0 mg/kg/injection, schedule: Q01DX009 (ip), vehicle: Klucel (hydroxypropylcellulose) (HPC) 106 % of control

CNC(=O)OCC1=C([Si](C)(C)C)C(=O)C(OC)=C(OC)C1=O
inactive: [5] 98 % of control | [6] 100 % of control

OCCN1CCOCC1
inactive: [9] 95 % of control | [10] 95 % of control | dose: 400.0 mg/kg/injection, schedule: Q04DX003 (ip), vehicle: saline with Tween-80 95 % of control
